Starred links: 1 amine or outer side, 2 acyl side, 3 side chain; linkers in the order of their positions; H or OH if unused. Non-standard residues stand in square brackets, D forms with d. Residues, ends and D or L forms follow the SMILES beside them. Groups on a side chain read outwards from the residue. *: point of attachment. Dip = N[C@H](C(=O)O)C(c1ccccc1)c1ccccc1; γGlu = O=C(O)[C@H](CCC(=O)[*:2])N[*:1]; Stearoyl = CCCCCCCCCCCCCCCCCC(=O)*; αMeF = C[C@](N)(Cc1ccccc1)C(=O)O; Cha = N[C@@H](CC1CCCCC1)C(=O)O; PEG2 = NCCOCCOCCC(=O)O; Aib = CC(C)(N)C(=O)O
How the values were obtained:
[1] = Mouse acute food intake study; type: in vivo; details: male C57Bl/6 mice, s.c., dose 10 nmol/kg, cumulative food intake at 24 hr vs vehicle
Outline: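 Single-housed male C57Bl/6 mice (8-9 weeks on arrival), chow-fed, acclimated and sham-dosed ≥2 times, were fasted 6-8 h, then given vehicle or peptide subcutaneously at 5 mL/kg 1-2 h before lights out. Food intake was recorded automatically over 48 h and analysed as cumulative intake.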

[2] = Proteolytic resistance to FasSSIF/Pancreatin; type: in vitro ADME; details: simulated intestinal fluid
Method: A fresh suspension of FasSSIF/P (Fasted-State Simulated Intestinal Fluid+USP Pancreatin®) was prepared according to that described by Galia, Nicolaides, Hörter, Löbenberg, Reppas and Dressman: Pharm. Res. 15 (1998) 698-705, and USP XL requirements. The resulting preparation was used immediately without storage.
Peptide for evaluation (1.0 mg) was dissolved in pre-warmed FasSSIF without Pancreatin® (200 μL). To this fresh FasSSIF/Pancreatin® (100 μL) was added to initiate potential proteolysis. Following momentary vortexing of the reaction tube the mixture was incubated at 37° C. in a thermostatic water bath for the duration of the experiment. 25 μL aliquot of the co-incubated peptide-enzyme mixture was periodically withdrawn (t=0, 5, 10 15 and 30 min) and quenched immediately by addition to a solution of 10% TFA in 1:1 water/acetonitrile (75 μL) to arrest proteolytic activity. Quenched samples were centrifuged (7800 RPM, 3 mins) to pellet solids and 10 μL aliquots of the supernatant solution were analyzed using analytical RP-HPLC as follows: Analytical RP-HPLC method: Agilent Polaris C8-A column (4.6×100 mm, 3 micron) eluted with a linear binary gradient of 10-90% MeCN (0.1% TFA v/v) in water (0.1% TFA v/v) over either 10 or 15 mins at 1.5 mL min^−1 at 40° C. with detection by UV absorption at 210 nm. Manual integration (AUC) allowed estimation of remaining intact peptide over the time course of the experiment.

[3] = biological target: human GLP-1 receptor (hGLP-1R) (Homo sapiens, UniProt P43220); test: cAMP production (HTRF) in CHO cells expressing hGLP-1R; type: cell-based; design: expressed in transfected cells; details: for EC50: Table 6, peptides modified at position 17, cAMP in CHO hGLP-1R cells, geometric mean, read-out: hGLP-1R EC50; for % Relative Potency Ratio: Table 6, % GLP-1R activity relative to GLP-1 / % GlucR activity relative to glucagon
Outline: (§1)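 Potency values represent EC50 from 4-parameter logistic curves of HTRF % Delta F signal. Receptor-expressing CHO cells (hGCGR 2×10^5 cells/mL, hGLP-1R 1×10^5 cells/mL) were exposed for 30 min at room temperature before two-step cAMP detection.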

[4] = biological target: human glucagon receptor (hGCGR) (Homo sapiens, UniProt P47871); test: cAMP production (HTRF) in CHO cells expressing hGCGR; type: cell-based; design: expressed in transfected cells; details: Table 6, peptides modified at position 17; cAMP in CHO hGCGR cells; geometric mean; read-out: hGluc-R EC50
Outline: as §1

human glucagon receptor (hGCGR), sequence (P47871 26-477): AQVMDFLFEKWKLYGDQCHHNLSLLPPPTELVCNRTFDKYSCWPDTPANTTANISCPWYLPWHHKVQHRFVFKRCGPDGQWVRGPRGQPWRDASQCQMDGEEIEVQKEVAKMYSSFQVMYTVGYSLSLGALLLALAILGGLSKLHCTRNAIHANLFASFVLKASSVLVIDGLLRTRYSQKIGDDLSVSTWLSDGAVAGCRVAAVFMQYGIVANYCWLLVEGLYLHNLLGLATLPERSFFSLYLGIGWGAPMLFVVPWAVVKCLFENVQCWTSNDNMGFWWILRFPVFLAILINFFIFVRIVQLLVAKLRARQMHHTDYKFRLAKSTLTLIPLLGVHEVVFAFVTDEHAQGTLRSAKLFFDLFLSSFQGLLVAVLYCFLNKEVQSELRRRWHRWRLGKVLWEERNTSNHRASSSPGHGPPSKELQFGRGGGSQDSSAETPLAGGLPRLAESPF
human GLP-1 receptor (hGLP-1R), sequence (P43220 24-463): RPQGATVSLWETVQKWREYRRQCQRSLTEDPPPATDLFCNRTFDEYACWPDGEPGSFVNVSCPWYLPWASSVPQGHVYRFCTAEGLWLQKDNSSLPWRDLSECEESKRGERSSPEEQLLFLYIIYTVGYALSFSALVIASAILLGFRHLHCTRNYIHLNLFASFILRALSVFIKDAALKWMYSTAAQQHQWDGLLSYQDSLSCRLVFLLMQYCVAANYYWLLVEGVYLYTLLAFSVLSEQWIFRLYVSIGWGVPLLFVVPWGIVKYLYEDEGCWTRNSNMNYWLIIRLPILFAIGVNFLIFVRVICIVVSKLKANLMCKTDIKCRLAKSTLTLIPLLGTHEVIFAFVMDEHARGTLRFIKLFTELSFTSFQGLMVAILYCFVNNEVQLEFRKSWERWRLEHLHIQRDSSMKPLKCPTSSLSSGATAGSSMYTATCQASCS

Row | Structure (SMILES) | 24 hr % Vehicle Food Intake [1] [%] | remaining at 5 min, 3.3 mg/mL [2] [%] | remaining at 10 min, 3.3 mg/mL [2] [%] | remaining at 0.25 h, 3.3 mg/mL [2] [%] | remaining at 0.5 h, 3.3 mg/mL [2] [%] | EC50 [3] [pM] | % Relative Potency Ratio [3] | EC50 [4] [pM]
1 | CCCCCCCCCCCCCCCCCC(=O)N[C@@H](CCC(=O)N[C@@H](CCC(=O)NCCOCCOCCC(=O)NCCOCCOCCC(=O)NCCCC[C@H](NC(=O)[C@H](CO)NC(=O)[C@H](CC(=O)O)NC(=O)[C@H](CC(C)C)NC(=O)[C@@H](NC(=O)[C@H](CCCCN)NC(=O)[C@H](CO)NC(=O)[C@@H](NC(=O)[C@H](CC(=O)O)NC(=O)[C@H](CO)NC(=O)[C@@H](NC(=O)[C@](C)(Cc1ccccc1)NC(=O)[C@H](CO)NC(=O)CNC(=O)[C@H](CCC(N)=O)NC(=O)[C@H](CO)NC(=O)[C@@H](N)Cc1c[nH]cn1)[C@@H](C)O)C(C)C)C(c1ccccc1)c1ccccc1)C(=O)N[C@@H](C)C(=O)N[C@@H](C)C(=O)N[C@@H](CCC(N)=O)C(=O)N[C@@H](CC(=O)O)C(=O)N[C@@](C)(Cc1ccccc1)C(=O)N[C@H](C(=O)N[C@@H](CCC(=O)O)C(=O)NC(C)(C)C(=O)N[C@@H](CC(C)C)C(=O)N[C@@H](C)C(=O)N[C@@H](CC(N)=O)C(=O)N[C@H](C(N)=O)[C@@H](C)O)C(C)C)C(=O)O)C(=O)O [Peptide 47] (H-HSQGS[αMeF]TSDVSK[Dip]LDSK([PEG2-PEG2-γGlu-γGlu-Stearoyl])AAQD[αMeF]VE[Aib]LANT-NH2; N-terminus assumed) | 51.4 | 90 | 88 | 83 | 75 | 1.72 | 2.7 | 2.38
2 | CCCCCCCCCCCCCCCCCC(=O)N[C@@H](CCC(=O)N[C@@H](CCC(=O)NCCOCCOCCC(=O)NCCOCCOCCC(=O)NCCCC[C@H](NC(=O)[C@H](CO)NC(=O)[C@H](CC(=O)O)NC(=O)[C@H](CC(C)C)NC(=O)[C@@H](NC(=O)[C@H](CCCCN)NC(=O)[C@H](CO)NC(=O)[C@@H](NC(=O)[C@H](CC(=O)O)NC(=O)[C@H](CO)NC(=O)[C@@H](NC(=O)[C@](C)(Cc1ccccc1)NC(=O)[C@H](CO)NC(=O)CNC(=O)[C@H](CCC(N)=O)NC(=O)[C@H](CO)NC(=O)[C@@H](N)Cc1c[nH]cn1)[C@@H](C)O)C(C)C)C(c1ccccc1)c1ccccc1)C(=O)N[C@@H](C)C(=O)N[C@@H](C)C(=O)N[C@@H](CCC(N)=O)C(=O)N[C@@H](CC(=O)O)C(=O)N[C@@](C)(Cc1ccccc1)C(=O)N[C@H](C(=O)N[C@@H](CCC(=O)O)C(=O)NC(C)(C)C(=O)N[C@@H](CC(C)C)C(=O)N[C@H](C(=O)N[C@@H](CO)C(=O)NCC(N)=O)[C@@H](C)CC)C(C)C)C(=O)O)C(=O)O [Peptide 48] (H-HSQGS[αMeF]TSDVSK[Dip]LDSK([PEG2-PEG2-γGlu-γGlu-Stearoyl])AAQD[αMeF]VE[Aib]LISG-NH2; N-terminus assumed) |  |  |  |  | 94 | 19.9 | 4.3 | 43.2
3 | CCCCCCCCCCCCCCCCCC(=O)N[C@@H](CCC(=O)N[C@@H](CCC(=O)NCCOCCOCCC(=O)NCCOCCOCCC(=O)NCCCC[C@H](NC(=O)[C@H](CO)NC(=O)[C@H](CC(=O)O)NC(=O)[C@H](CC(C)C)NC(=O)[C@@H](NC(=O)[C@H](CCCCN)NC(=O)[C@H](CO)NC(=O)[C@@H](NC(=O)[C@H](CC(=O)O)NC(=O)[C@H](CO)NC(=O)[C@@H](NC(=O)[C@](C)(Cc1ccccc1)NC(=O)[C@H](CO)NC(=O)CNC(=O)[C@H](CCC(N)=O)NC(=O)[C@H](CO)NC(=O)[C@@H](N)Cc1c[nH]cn1)[C@@H](C)O)C(C)C)C(c1ccccc1)c1ccccc1)C(=O)N[C@@H](C)C(=O)N[C@@H](C)C(=O)N[C@@H](CCC(N)=O)C(=O)N[C@@H](CC(=O)O)C(=O)N[C@@](C)(Cc1ccccc1)C(=O)N[C@H](C(=O)N[C@@H](CCC(=O)O)C(=O)NC(C)(C)C(=O)N[C@@H](CC(C)C)C(=O)N[C@@H](CC(C)C)C(=O)N[C@@H](CC(N)=O)C(=O)N[C@H](C(N)=O)[C@@H](C)O)C(C)C)C(=O)O)C(=O)O [Peptide 51] (H-HSQGS[αMeF]TSDVSK[Dip]LDSK([PEG2-PEG2-γGlu-γGlu-Stearoyl])AAQD[αMeF]VE[Aib]LLNT-NH2; N-terminus assumed) |  |  |  |  | 91 | 18.1 | 4.6 | 41.9
4 | CCCCCCCCCCCCCCCCCC(=O)N[C@@H](CCC(=O)N[C@@H](CCC(=O)NCCOCCOCCC(=O)NCCOCCOCCC(=O)NCCCC[C@H](NC(=O)[C@H](CO)NC(=O)[C@H](CC(=O)O)NC(=O)[C@H](CC(C)C)NC(=O)[C@@H](NC(=O)[C@H](CCCCN)NC(=O)[C@H](CO)NC(=O)[C@@H](NC(=O)[C@H](CC(=O)O)NC(=O)[C@H](CO)NC(=O)[C@@H](NC(=O)[C@](C)(Cc1ccccc1)NC(=O)[C@H](CO)NC(=O)CNC(=O)[C@H](CCC(N)=O)NC(=O)[C@H](CO)NC(=O)[C@@H](N)Cc1c[nH]cn1)[C@@H](C)O)C(C)C)C(c1ccccc1)c1ccccc1)C(=O)N[C@@H](C)C(=O)N[C@@H](C)C(=O)N[C@@H](CCC(N)=O)C(=O)N[C@@H](CC(=O)O)C(=O)N[C@@](C)(Cc1ccccc1)C(=O)N[C@H](C(=O)N[C@@H](CCC(=O)O)C(=O)NC(C)(C)C(=O)N[C@@H](CC1CCCCC1)C(=O)N[C@@H](C)C(=O)N[C@@H](CC(N)=O)C(=O)N[C@H](C(N)=O)[C@@H](C)O)C(C)C)C(=O)O)C(=O)O [Peptide 52] (H-HSQGS[αMeF]TSDVSK[Dip]LDSK([PEG2-PEG2-γGlu-γGlu-Stearoyl])AAQD[αMeF]VE[Aib][Cha]ANT-NH2; N-terminus assumed) |  |  |  |  | 90 | 22.7 | 0.6 | 6.65
5 | CCCCCCCCCCCCCCCCCC(=O)N[C@@H](CCC(=O)N[C@@H](CCC(=O)NCCOCCOCCC(=O)NCCOCCOCCC(=O)NCCCC[C@H](NC(=O)[C@H](CO)NC(=O)[C@H](CC(=O)O)NC(=O)[C@H](CC(C)C)NC(=O)[C@@H](NC(=O)[C@H](CCCCN)NC(=O)[C@H](CO)NC(=O)[C@@H](NC(=O)[C@H](CC(=O)O)NC(=O)[C@H](CO)NC(=O)[C@@H](NC(=O)[C@](C)(Cc1ccccc1)NC(=O)[C@H](CO)NC(=O)CNC(=O)[C@H](CCC(N)=O)NC(=O)[C@H](CO)NC(=O)[C@@H](N)Cc1c[nH]cn1)[C@@H](C)O)C(C)C)C(c1ccccc1)c1ccccc1)C(=O)N[C@@H](C)C(=O)N[C@@H](C)C(=O)N[C@@H](CCC(N)=O)C(=O)N[C@@H](CC(=O)O)C(=O)N[C@@](C)(Cc1ccccc1)C(=O)N[C@H](C(=O)N[C@@H](CCC(=O)O)C(=O)NC(C)(C)C(=O)N[C@H](C(=O)N[C@H](C(=O)N[C@@H](CCC(=O)O)C(=O)NCC(=O)NCC(N)=O)C(C)C)C(C)C)C(C)C)C(=O)O)C(=O)O [Peptide 53] (H-HSQGS[αMeF]TSDVSK[Dip]LDSK([PEG2-PEG2-γGlu-γGlu-Stearoyl])AAQD[αMeF]VE[Aib]VVEGG-NH2) |  |  |  |  | 92 | 3.03 | 12.3 | 18.9
6 | CCCCCCCCCCCCCCCCCC(=O)N[C@@H](CCC(=O)N[C@@H](CCC(=O)NCCOCCOCCC(=O)NCCOCCOCCC(=O)NCCCC[C@H](NC(=O)[C@H](CO)NC(=O)[C@H](CC(=O)O)NC(=O)[C@H](CC(C)C)NC(=O)[C@@H](NC(=O)[C@H](CCCCN)NC(=O)[C@H](CO)NC(=O)[C@@H](NC(=O)[C@H](CC(=O)O)NC(=O)[C@H](CO)NC(=O)[C@@H](NC(=O)[C@](C)(Cc1ccccc1)NC(=O)[C@H](CO)NC(=O)CNC(=O)[C@H](CCC(N)=O)NC(=O)[C@H](CO)NC(=O)[C@@H](N)Cc1c[nH]cn1)[C@@H](C)O)C(C)C)[C@@H](C)CC)C(=O)N[C@@H](C)C(=O)N[C@@H](C)C(=O)N[C@@H](CCC(N)=O)C(=O)N[C@@H](CC(=O)O)C(=O)N[C@@](C)(Cc1ccccc1)C(=O)N[C@H](C(=O)N[C@@H](CCC(N)=O)C(=O)NC(C)(C)C(=O)N[C@H](C(=O)N[C@H](C(=O)N[C@@H](CC(N)=O)C(=O)N[C@H](C(N)=O)[C@@H](C)O)[C@@H](C)CC)[C@@H](C)CC)C(C)C)C(=O)O)C(=O)O [Peptide 117] (H-HSQGS[αMeF]TSDVSKILDSK([PEG2-PEG2-γGlu-γGlu-Stearoyl])AAQD[αMeF]VQ[Aib]IINT-NH2; N-terminus assumed) |  | 54 | 35 | 22 | 8 | 1.4 | 2.6 | 1.85

Source: patent US20250353891A1 (MEDIMMUNE LIMITED, priority 2022, published 2025)
